The source of these data is patent publication US20150368715A1, “DIAGNOSTIC AND TREATMENT OF CHRONIC HEART FAILURE” (Institut National de la Sante et de la Recherche Medicale …, priority 2010, published 2015).

The structures appear in SMILES notation.

Common to all, as to format: cell-based, rat
For one assay, the system named is caspase 3. The assay can be described thus: Caspase 3 activity monitoring in cardiac myoblasts. The conditions noted are these: ApoO+ cells incubated with palmitate, with or without added agent, FIG. 5A, 5L, 6E, 6F. How it is done:
Palmitate preparation and caspase 3 activity measurement were performed as previously described (Hickson-Bick, Buja et al. 2000; Hirota, Otabe et al. 2006).

In a further assay the test system is AMPK. Description: Western blot analysis of AMPK phosphorylation. The conditions noted are these: ApoO+ cardiac myoblasts, with or without palmitate; FIG. 6G.
Assay [1] concerns H9c2 cardiac myoblasts. The assay can be described thus: Oxygen flow measurement (cell respiration). The conditions noted are these: ApoO+ H9c2 cardiac myoblasts; CCCP 4 to 16 μM cumulative doses; FIG. 8A.
The subject of assay [2] is H9c2 cardiac myoblasts. The assay can be described thus: Transmission electron microscopy of palmitate treated cells. The conditions noted are these: H9c2 (control) cardiac myoblasts treated with palmitate; not shown.
Assay [3] concerns long fatty acyl CoA synthetase. Description: Palmitoyl-coA synthase activity in H9c2 cardiac myoblasts. The conditions noted are these: control and ApoO+ H9c2 cardiac myoblasts; FIG. 7H.

On to `NC(=O)c1ncn([C@@H]2O[C@H](CO)[C@@H](O)[C@H]2O)c1N` [AICAR, 5-Aminoimidazole-4-carboxyamide ribonucleoside], for which the “caspase 3 activity” value in the assay on caspase 3 was “significantly reduced”. Besides, the AMPK phosphorylation entry in the assay on AMPK is “increased AMPK phosphorylation”.

Regarding `N#CC(C#N)=NNc1cccc(Cl)c1` [CCCP, Carbonyl cyanide m-chlorophenyl hydrazone], the oxygen consumption entry with H9c2 cardiac myoblasts [1] was “further increased”.

On to `CCCC[C@@H](C)[C@@H](OC(=O)C[C@@H](CC(=O)O)C(=O)O)[C@H](C[C@@H](C)C[C@H](O)CCCC[C@@H](O)C[C@H](O)[C@H](C)N)OC(=O)C[C@@H](CC(=O)O)C(=O)O` [Fumonisin B1], for which the results for the “caspase 3 activity” value with caspase 3 and with caspase 3 (listed as fumonisine B) were “lowered caspase 3 activity” and “partially attenuated”, respectively.

In the case of `O=c1cc(N2CCOCC2)oc2c(-c3ccccc3)cccc12` [LY294002], the “caspase 3 activity” value in the assay with caspase 3 is given as “no significant effect”.

For the compound `CCCCCCCCCCCCCCCC(=O)O` [palmitate], the “mitochondrial alteration by transmission electron microscopy” value in the assay on H9c2 cardiac myoblasts [2] is given as “no significant effect”.

In the case of `CCC/C=C/C/C=C/C=C/C=N/NN=O` [triacsin C], the palmitoyl-coA activity entry in assay [3] is on record as “inhibited”.
